Assay results published in PMC9983021, “Novel GluN2B-Selective NMDA Receptor Negative Allosteric Modulator Possesses Intrinsic Analgesic Properties and Enhances Analgesia of Morphine in a Rodent Tail Flick Pain Model” (ACS Chemical Neuroscience, 2023).

What was measured:
Test in all cases: Radioligand binding assay (NIMH PDSP)
5-HT2A = 5-HT2A (Homo sapiens, UniProt P28223)
Protocol: (§1) Compound EU93-108 was also tested for inhibition of binding of probes to a range of GPCRs and other targets (Table 4 and Supporting Table S4). […] EU93-108 produced significant displacement of binding probes for the 5-HT2 receptors and α-1-adrenergic receptors, as well as D3, H1, and σ1 receptors. Concentration–response binding competition curves for these targets were used to determine Ki values (Table 4). Given that the brain concentration of EU93-108 achieved 30 min post i.p. injection is 18 μM (Figure 6), the doses that yield our desired antinociceptive effects may engage some of the receptors listed in Table 4.
(§2) Conventional competition and saturation radioligand binding assays were used to determine the affinities of reference standards and EU93-108. Experiments were carried out by the NIMH Psychoactive Drug Screening Program (PDSP) and were performed as previously described.[123]
(§3) The detailed experimental protocols for the radioligand assays are available on the NIMH PDSP website at https://pdsp.unc.edu/pdspweb/content/UNC-CH%20Protocol%20Book.pdf.
(§4) Receptor Mean % Receptor Mean % Receptor Mean %
(§5) Inhibition Inhibition Inhibition
(§6) Supplemental Table S4. Off-Target Actions of EU93-108: Primary GPCR Screen. Cloned human molecular targets were individually expressed and submitted to molecular target-based screening with initial screens performed at a final concentration of 10 µM in quadruplicate. Complete protocols for the assays have been previously published (Besnard J et al. 2012). Where inhibition greater than 50% was measured, secondary screens were performed wherein Ki values were calculated (see Table 4).

5-HT2B = 5-HT2B (Homo sapiens, UniProt P41595)
Protocol: as §1, §2, §3, §4, §5, §6

5-HT2C = target: T1, 5-HT2C (Homo sapiens, UniProt P28335)
T1 sequence (P28335 33-458): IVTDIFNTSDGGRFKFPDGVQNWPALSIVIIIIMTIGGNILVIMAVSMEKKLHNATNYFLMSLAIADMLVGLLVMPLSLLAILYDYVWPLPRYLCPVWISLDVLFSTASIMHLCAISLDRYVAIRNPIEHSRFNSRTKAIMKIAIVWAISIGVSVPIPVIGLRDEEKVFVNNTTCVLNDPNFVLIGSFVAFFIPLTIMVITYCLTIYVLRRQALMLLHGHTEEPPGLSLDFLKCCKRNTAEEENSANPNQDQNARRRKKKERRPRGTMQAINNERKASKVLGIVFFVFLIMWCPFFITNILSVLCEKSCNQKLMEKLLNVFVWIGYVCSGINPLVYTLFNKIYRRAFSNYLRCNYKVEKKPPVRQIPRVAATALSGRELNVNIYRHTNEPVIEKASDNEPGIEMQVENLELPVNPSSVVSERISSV
Protocol: as §1, §2, §3, §4, §5, §6

Alpha1A (α1A) = target: T2, Alpha1A (α1A) (Homo sapiens, UniProt P35348)
T2 sequence (P35348 1-466): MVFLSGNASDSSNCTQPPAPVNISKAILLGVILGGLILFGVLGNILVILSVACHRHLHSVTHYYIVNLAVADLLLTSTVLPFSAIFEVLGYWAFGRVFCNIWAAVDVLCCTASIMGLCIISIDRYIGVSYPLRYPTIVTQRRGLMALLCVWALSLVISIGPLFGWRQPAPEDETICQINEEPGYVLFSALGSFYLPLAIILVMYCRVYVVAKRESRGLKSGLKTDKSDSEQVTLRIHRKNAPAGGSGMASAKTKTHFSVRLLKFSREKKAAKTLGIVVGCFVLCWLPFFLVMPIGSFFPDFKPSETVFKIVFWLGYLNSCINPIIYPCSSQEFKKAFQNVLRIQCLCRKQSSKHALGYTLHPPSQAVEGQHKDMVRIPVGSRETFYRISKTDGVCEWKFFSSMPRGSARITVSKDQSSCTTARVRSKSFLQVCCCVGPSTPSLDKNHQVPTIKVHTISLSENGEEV
Protocol: as §1, §2, §3, §4, §5, §6

Alpha1D (α1D) = target: T3, Alpha1D (α1D) (Homo sapiens, UniProt P25100)
T3 sequence (P25100 1-572): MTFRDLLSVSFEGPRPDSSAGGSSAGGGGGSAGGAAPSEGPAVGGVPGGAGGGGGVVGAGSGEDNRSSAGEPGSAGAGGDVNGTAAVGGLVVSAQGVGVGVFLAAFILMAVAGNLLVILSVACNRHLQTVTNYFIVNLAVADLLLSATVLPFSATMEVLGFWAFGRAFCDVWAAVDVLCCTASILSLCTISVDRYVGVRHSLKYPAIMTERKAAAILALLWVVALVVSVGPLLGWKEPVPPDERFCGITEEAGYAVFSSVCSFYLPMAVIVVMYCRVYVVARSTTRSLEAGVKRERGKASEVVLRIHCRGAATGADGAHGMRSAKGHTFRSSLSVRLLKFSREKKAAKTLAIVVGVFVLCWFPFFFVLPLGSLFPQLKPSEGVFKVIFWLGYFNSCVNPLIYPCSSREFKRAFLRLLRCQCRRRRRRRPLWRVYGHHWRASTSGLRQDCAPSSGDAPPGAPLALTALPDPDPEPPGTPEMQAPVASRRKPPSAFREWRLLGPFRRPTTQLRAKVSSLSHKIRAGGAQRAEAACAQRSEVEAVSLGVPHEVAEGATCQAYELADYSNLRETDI
Protocol: as §1, §2, §3, §4, §5, §6

Alpha2C (α2C) = target: T4, Alpha2C (α2C) (Homo sapiens, UniProt P18825)
T4 sequence (P18825 1-462): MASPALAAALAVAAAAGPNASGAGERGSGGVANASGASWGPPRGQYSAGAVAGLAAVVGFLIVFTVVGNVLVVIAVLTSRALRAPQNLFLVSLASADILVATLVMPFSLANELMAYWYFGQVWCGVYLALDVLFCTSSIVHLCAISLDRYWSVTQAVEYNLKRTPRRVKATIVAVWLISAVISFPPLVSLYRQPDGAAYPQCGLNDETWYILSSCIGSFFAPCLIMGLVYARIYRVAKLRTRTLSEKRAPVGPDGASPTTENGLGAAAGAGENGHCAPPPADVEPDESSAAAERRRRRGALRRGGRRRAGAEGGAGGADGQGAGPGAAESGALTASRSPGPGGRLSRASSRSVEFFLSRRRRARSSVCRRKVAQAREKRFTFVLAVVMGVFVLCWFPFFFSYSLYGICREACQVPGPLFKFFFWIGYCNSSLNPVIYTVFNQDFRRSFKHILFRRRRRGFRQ
Protocol: as §1, §2, §3, §4, §5, §6

D3 = D3 (Homo sapiens, UniProt P35462)
Protocol: as §1, §2, §3, §4, §5, §6

[1] = primary screen, 10 µM, quadruplicate
[2] = ratio of Ki to the IC50 for EU93-108 (555 nM) at GluN2B
[3] = secondary screen, binding competition curve

Sequence of D3 (P35462 whole entry): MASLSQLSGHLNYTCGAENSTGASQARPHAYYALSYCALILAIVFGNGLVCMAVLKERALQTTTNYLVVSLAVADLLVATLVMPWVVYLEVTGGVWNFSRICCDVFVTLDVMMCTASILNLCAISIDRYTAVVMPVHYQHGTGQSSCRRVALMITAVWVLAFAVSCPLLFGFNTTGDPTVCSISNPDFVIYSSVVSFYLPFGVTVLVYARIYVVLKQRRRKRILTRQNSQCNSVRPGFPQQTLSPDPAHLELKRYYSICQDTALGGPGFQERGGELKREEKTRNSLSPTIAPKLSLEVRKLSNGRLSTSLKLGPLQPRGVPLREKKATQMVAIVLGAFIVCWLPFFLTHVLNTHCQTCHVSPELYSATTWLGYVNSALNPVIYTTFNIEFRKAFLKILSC
Sequence of 5-HT2B (P41595 whole entry): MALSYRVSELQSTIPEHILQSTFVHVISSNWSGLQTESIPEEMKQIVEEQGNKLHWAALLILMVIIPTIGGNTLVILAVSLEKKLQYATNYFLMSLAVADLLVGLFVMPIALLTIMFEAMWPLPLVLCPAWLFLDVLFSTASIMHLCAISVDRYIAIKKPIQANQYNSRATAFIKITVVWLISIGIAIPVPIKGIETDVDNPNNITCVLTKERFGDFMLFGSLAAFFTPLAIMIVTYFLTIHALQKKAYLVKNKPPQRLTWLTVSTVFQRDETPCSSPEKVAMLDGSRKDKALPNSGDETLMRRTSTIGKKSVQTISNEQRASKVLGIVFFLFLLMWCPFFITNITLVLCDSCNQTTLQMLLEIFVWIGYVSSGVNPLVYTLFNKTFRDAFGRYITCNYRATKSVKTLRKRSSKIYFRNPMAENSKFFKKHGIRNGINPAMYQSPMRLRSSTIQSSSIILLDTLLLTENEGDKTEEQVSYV
Sequence of 5-HT2A (P28223 whole entry): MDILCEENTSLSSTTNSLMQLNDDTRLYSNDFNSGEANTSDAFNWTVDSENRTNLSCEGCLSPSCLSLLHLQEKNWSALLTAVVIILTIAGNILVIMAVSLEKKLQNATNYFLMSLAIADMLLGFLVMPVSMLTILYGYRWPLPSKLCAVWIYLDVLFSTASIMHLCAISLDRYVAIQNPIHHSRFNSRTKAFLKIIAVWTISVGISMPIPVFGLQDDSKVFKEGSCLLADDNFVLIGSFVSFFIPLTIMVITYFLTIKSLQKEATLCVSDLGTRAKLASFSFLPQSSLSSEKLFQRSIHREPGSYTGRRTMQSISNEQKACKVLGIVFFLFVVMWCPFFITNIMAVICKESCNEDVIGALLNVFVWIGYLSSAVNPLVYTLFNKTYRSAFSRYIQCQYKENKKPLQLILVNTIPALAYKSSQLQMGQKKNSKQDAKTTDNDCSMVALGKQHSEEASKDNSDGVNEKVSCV

## CS(=O)(=O)Nc1ccc(OC[C@@H](O)CN2CCN(c3ccc(F)c(F)c3)CC2)cc1 [EU93-108, (S)-N-(4-(3-(4-(3,4-Difluorophenyl)piperazin-1-yl)-2-hydroxypropoxy)phenyl)methanesulfonamide]
5-HT2A; [1]
  inhibition at 10 µM: 83.8%
5-HT2A; [2]
  Ki/IC50 of EU93-108: 0.88
5-HT2A; [3]
  Ki: 490 nM
5-HT2B; [1]
  inhibition at 10 µM: 67.4%
5-HT2B; [2]
  Ki/IC50 of EU93-108: 1.75
5-HT2B; [3]
  Ki: 976 nM
5-HT2C; [1]
  inhibition at 10 µM: 71.3%
5-HT2C; [2]
  Ki/IC50 of EU93-108: 3.28
5-HT2C; [3]
  Ki: 1820 nM
Alpha1A (α1A); [1]
  inhibition at 10 µM: 86.3%
Alpha1A (α1A); [2]
  Ki/IC50 of EU93-108: 0.31
Alpha1A (α1A); [3]
  Ki: 170 nM
Alpha1D (α1D); [1]
  inhibition at 10 µM: 76.7%
Alpha1D (α1D); [2]
  Ki/IC50 of EU93-108: 0.65
Alpha1D (α1D); [3]
  Ki: 359 nM
Alpha2C (α2C); [1]
  inhibition at 10 µM: 63%
Alpha2C (α2C); [2]
  Ki/IC50 of EU93-108: 1.55
Alpha2C (α2C); [3]
  Ki: 862 nM
D3; [1]
  inhibition at 10 µM: 67.1%
D3; [2]
  Ki/IC50 of EU93-108: 0.34
D3; [3]
  Ki: 190 nM
